13 compounds from ChEMBL document CHEMBL1140656, “Design, synthesis, and evaluation of 3,4-disubstituted pyrazole analogues as anti-tumor CDK inhibitors” (Bioorg Med Chem Lett, 2007) can be followed below.

Test [1] deals with Vascular endothelial growth factor receptor 2 (Homo sapiens, UniProt P35968). Description: Inhibition of VEGFR2.
Test [2] can be described thus: Inhibition of CDK1/cyclin B. More on the design: species or system Homo sapiens.
Another test relates to HeLa. The test can be described thus: Antiproliferative activity against human HeLa cells. It is filed as functional, cell-based.
The subject of a further test is HCT-116. The test can be described thus: Antiproliferative activity against human HCT116 cells. In kind it is functional, cell-based.
The target of the next test is T1, Aurora kinase A (Homo sapiens, UniProt O14965).
T1 sequence (O14965 whole entry): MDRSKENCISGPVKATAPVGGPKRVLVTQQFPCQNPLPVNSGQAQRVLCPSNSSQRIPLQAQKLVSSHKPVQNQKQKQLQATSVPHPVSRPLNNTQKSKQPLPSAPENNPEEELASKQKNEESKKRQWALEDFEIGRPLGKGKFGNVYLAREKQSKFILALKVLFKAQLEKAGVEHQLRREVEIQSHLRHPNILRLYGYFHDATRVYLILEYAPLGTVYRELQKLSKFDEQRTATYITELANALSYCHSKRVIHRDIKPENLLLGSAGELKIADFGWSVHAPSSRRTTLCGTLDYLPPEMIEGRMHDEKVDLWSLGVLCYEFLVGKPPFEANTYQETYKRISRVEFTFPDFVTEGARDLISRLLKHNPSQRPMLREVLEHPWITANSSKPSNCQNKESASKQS
Description: Inhibition of aurora-A.

The target of test [3] is Receptor tyrosine-protein kinase erbB-2 (Homo sapiens, UniProt P04626). The test can be described thus: Inhibition of HER2.
The test system of another test is A-375. Description: Antiproliferative activity against human A375 cells. It is filed as functional, cell-based.

For orientation: IC50 means the concentration at which inhibition is half-maximal.

Vascular endothelial growth factor receptor 2, sequence (P35968 whole entry): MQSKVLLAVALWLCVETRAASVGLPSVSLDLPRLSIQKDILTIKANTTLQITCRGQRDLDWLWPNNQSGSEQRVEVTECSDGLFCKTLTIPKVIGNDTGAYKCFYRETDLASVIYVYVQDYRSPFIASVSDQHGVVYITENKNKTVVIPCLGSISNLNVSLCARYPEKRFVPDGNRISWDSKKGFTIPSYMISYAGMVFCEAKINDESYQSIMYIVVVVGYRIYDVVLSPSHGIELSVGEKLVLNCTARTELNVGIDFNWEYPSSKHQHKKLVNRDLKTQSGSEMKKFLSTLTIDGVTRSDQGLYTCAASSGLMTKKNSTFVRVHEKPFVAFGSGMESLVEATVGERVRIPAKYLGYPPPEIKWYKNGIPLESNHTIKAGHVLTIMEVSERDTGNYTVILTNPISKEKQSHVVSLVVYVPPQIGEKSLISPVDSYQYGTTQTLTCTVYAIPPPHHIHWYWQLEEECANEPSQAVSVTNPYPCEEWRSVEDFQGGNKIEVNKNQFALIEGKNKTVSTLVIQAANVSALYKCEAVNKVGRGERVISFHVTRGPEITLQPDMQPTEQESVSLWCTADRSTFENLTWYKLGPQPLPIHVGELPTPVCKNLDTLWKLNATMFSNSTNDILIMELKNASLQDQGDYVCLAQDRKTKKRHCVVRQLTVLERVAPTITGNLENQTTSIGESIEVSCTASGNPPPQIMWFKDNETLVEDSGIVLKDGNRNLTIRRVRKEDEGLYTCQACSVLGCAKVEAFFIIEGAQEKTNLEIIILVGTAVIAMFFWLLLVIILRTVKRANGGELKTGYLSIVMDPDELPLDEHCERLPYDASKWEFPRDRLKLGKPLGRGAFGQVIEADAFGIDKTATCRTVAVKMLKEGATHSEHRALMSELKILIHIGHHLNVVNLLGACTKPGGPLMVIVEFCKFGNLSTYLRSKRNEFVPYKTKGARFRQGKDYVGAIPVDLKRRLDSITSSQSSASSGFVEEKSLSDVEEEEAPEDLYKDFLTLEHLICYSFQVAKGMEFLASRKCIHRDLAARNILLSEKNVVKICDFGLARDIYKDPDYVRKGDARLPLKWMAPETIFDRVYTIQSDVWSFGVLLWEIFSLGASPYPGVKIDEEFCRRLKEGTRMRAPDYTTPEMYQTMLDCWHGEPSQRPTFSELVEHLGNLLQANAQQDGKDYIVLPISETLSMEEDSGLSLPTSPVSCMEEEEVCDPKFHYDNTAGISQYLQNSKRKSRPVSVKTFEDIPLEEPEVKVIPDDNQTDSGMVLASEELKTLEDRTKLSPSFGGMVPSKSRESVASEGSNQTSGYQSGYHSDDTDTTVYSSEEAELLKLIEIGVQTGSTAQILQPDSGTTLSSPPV
Receptor tyrosine-protein kinase erbB-2, sequence (P04626 whole entry): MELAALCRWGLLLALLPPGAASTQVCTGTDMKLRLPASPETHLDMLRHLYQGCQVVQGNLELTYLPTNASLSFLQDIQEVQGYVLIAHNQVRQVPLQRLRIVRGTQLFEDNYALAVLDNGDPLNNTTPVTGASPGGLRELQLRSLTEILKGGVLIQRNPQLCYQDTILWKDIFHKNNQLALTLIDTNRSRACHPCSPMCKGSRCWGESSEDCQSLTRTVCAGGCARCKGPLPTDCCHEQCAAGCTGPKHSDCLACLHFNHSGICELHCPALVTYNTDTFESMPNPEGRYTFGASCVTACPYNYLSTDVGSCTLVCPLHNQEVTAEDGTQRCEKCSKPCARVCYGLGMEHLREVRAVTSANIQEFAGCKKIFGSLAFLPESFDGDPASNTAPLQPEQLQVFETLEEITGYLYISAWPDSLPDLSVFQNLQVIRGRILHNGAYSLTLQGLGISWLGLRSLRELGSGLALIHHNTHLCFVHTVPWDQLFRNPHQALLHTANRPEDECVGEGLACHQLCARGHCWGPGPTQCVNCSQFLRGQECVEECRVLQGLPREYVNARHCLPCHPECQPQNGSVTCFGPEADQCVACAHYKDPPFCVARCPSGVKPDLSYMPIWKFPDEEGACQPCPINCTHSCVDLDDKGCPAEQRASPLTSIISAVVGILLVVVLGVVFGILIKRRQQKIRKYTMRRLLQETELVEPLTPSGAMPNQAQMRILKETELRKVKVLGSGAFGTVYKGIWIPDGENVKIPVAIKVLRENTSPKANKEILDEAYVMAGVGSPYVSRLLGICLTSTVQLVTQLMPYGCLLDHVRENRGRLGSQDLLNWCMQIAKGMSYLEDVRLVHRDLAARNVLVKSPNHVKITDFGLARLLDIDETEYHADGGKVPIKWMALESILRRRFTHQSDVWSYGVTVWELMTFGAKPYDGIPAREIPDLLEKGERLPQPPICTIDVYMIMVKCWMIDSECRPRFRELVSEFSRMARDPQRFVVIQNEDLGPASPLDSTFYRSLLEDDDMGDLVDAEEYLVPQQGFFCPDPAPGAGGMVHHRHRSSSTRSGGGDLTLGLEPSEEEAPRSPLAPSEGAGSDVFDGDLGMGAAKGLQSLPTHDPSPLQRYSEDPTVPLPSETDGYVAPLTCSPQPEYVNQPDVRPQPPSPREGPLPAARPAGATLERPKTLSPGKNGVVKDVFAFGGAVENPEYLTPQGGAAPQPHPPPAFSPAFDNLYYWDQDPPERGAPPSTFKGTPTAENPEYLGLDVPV

`CCNCc1cncc(/C=C/c2c[nH]nc2-c2nc(C(F)(F)F)c[nH]2)c1`: the IC50 in test [1] is 10000 nM; in test [2], 18 nM; with HeLa, 3200 nM; in the test with HCT-116 it was 1700 nM; at Aurora kinase A, over 10000 nM; in test [3] it was over 100000 nM. This compound showed an IC50 with A-375 of 7400 nM.

As for `COc1ccc2nc(-c3n[nH]cc3/C=C/c3cnccc3C)[nH]c2c1`, the IC50 was 760 nM in test [1]; 160 nM in test [2]; 2800 nM in the test with HeLa; 3200 nM in the test with HCT-116; 550 nM against Aurora kinase A; over 10000 nM in test [3]. Further, the concentration for half-maximal inhibition (IC50) in the test on A-375 was 4300 nM.

Consider `COc1cncc(/C=C/c2c[nH]nc2-c2nc3ccc(OC)cc3[nH]2)c1`, for which the IC50 in test [1] is 650 nM; in test [2], 47 nM; in the test on HeLa, 890 nM; in the test with HCT-116 it was 750 nM; on Aurora kinase A it was 400 nM; in the test with A-375, 910 nM.

Consider `CCNC(=O)c1cncc(/C=C/c2c[nH]nc2-c2nc3ccc(OC)cc3[nH]2)c1`, for which the IC50 was 1350 nM in test [1]; 110 nM in test [2]; 3700 nM in the test with HeLa; 2500 nM in the test with HCT-116; over 100000 nM against Aurora kinase A; 3600 nM in the test with A-375.

`CCNCc1cncc(/C=C/c2c[nH]nc2-c2nc3ccc(OC)cc3[nH]2)c1`: the IC50 in test [1] amounted to 820 nM; in test [2] it was 4.6 nM; in the test with HeLa, 620 nM; with HCT-116, 190 nM; against Aurora kinase A it was 590 nM; in the test with A-375, 550 nM.

For the compound `FC(F)(F)c1c[nH]c(-c2n[nH]cc2/C=C/c2cccnc2)n1`, the IC50 in test [1] is 29000 nM; in test [2], 480 nM; with HeLa, over 10000 nM; with HCT-116, 24000 nM; on Aurora kinase A, 120 nM; in test [3], over 100000 nM. In the test on A-375, this compound came in with a half-maximal inhibitory concentration (IC50) of 47000 nM.

Consider `FC(F)(F)c1c[nH]c(-c2n[nH]cc2/C=C/c2cncc3ccccc23)n1`, for which the IC50 turned out to be 3060 nM in test [1]; 110 nM in test [2]; 3600 nM in the test with HeLa; 2900 nM in the test on HCT-116; 300 nM against Aurora kinase A; 5600 nM in the test on A-375.

On to `CN1CCN(c2ccc3nc(-c4n[nH]cc4/C=C/c4cccnc4)[nH]c3c2)CC1`, for which the IC50 in test [1] is 290 nM; in test [2], 29 nM; in the test on HeLa, 460 nM; in the test on HCT-116, 190 nM; on Aurora kinase A, over 10000 nM; in the test on A-375, 860 nM.

Regarding `N#Cc1c[nH]c(-c2n[nH]cc2/C=C/c2cccnc2)n1`, the IC50 was over 10000 nM in test [1]; 700 nM in test [2]; over 10000 nM with HeLa; 70700 nM in the test with HCT-116; over 10000 nM against Aurora kinase A; over 100000 nM in test [3]. In the test with A-375, the IC50 is over 10000 nM.

Consider `COc1ccc2nc(-c3n[nH]cc3/C=C/c3cncc4ccccc34)[nH]c2c1`, for which the IC50 in test [1] is 610 nM; in test [2], 150 nM; with HeLa, 2800 nM; in the test on HCT-116 it was 2700 nM; against Aurora kinase A it was 530 nM; in test [3], over 100000 nM. For the same compound, in the test with A-375, the IC50 was found to be 3000 nM.

For the compound `COc1ccc2nc(-c3n[nH]cc3/C=C/c3cncc(C#N)c3)[nH]c2c1`, the IC50 is 1700 nM in test [1], over 1000 nM in test [2], 4200 nM against Aurora kinase A and over 100000 nM in test [3].

Consider `COC(=O)c1cncc(/C=C/c2c[nH]nc2-c2nc3ccc(OC)cc3[nH]2)c1`, for which the IC50 in test [1] is 1280 nM; in test [2], 890 nM; with HeLa, 4400 nM; in the test with HCT-116 it was 3100 nM; against Aurora kinase A, over 100000 nM; in test [3] it was over 100000 nM. Besides, half-maximal inhibition in the test on A-375 (IC50) was put at 3100 nM.

For the compound `COc1ccc2nc(-c3n[nH]cc3/C=C/c3cccnc3)[nH]c2c1`, the IC50 in test [1] is 970 nM; in test [2] it was 33 nM; with HeLa it was 1800 nM; with HCT-116, 2200 nM; on Aurora kinase A, 510 nM; in test [3], over 10000 nM. The half-inhibitory concentration (IC50) in the test on A-375 is 2500 nM.
